The results in this text go back to ChEMBL document CHEMBL1201862, “PubChem BioAssay data set” (2004).

Molecules are shown by their SMILES.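 Growth conditions: 96-well plates. Treatment: test compound, 48 hours, 5 concentrations. Analysis: linear interpolation between bracketing concentrations; unreached endpoints set to highest concentration. GI50: concentration for 50% inhibition of growth.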 Calls of active or inactive are those of the source. Rule as the data show it: active = GI50 up to about 1.1 µM and inactive = higher.

Some test systems named below: HOP-92; UO-31; NCI-H23; TK-10; RXF 393; CCRF-CEM; UACC-62; SN12C; HCC 2998; SF-295; SNB-75; MDA-N; EKVX; COLO 205; SF-268; HCT-116; LXFL 529; KM-20L2.
Assay in all cases: DTP human tumour cell line panel, 48 h

As usually defined, the GI50 is the concentration that inhibits growth by half. `O=C(O)/C=C\C(=O)Nc1ccc2c(c1)-c1ccccc1C2`: the GI50 is 44.6 µM (inactive) in the experiment with HOP-92; > 100 µM (inactive) in the experiment on UO-31; 70.8 µM (inactive) in the experiment with NCI-H23; > 100 µM (inactive) in the experiment on TK-10; > 100 µM (inactive) in the experiment with RXF 393; 56.8 µM (inactive) in the experiment on CCRF-CEM. Moreover, the GI50 in the experiment with UACC-62 is > 100 µM (inactive); in the experiment on SN12C, > 100 µM (inactive); in the experiment on HCC 2998, 36.7 µM (inactive); in the experiment on SF-295, > 100 µM (inactive); with SNB-75, > 100 µM (inactive); with MDA-N, > 100 µM (inactive). The GI50 with EKVX is 87.9 µM (inactive); in the experiment with COLO 205 it was > 100 µM (inactive); in the experiment with SF-268 it was 58.2 µM (inactive); with HCT-116, 99.3 µM (inactive).

Take `NC(=O)C(C(N)=O)=C(O)/C(O)=C/C(=O)c1ccccc1`: the GI50 in the experiment with HOP-92 was > 100 µM (inactive); in the experiment with UO-31, > 100 µM (inactive); in the experiment with NCI-H23, > 100 µM (inactive); with TK-10, > 100 µM (inactive); in the experiment on RXF 393, > 100 µM (inactive); in the experiment with CCRF-CEM, 21.5 µM (inactive). Also, the GI50 in the experiment on UACC-62, in the experiment on SN12C, with HCC 2998, in the experiment with SF-295, with SNB-75 and with MDA-N was > 100 µM (inactive) throughout. Moreover, the GI50 with EKVX, in the experiment with COLO 205, in the experiment with SF-268 and with HCT-116 was > 100 µM (inactive) each time.

As for `O=C(O)C1CC(C2CCCCN2)CN2CCCCC12` (centres undefined), the GI50 with HOP-92, in the experiment with UO-31, in the experiment on NCI-H23, with TK-10, with RXF 393 and with CCRF-CEM was > 100 µM (inactive) in each case. Also, the GI50 in the experiment on UACC-62, with SN12C, in the experiment with HCC 2998, in the experiment on SF-295, in the experiment on SNB-75 and in the experiment on MDA-N was > 100 µM (inactive) throughout. The GI50 with EKVX, in the experiment with COLO 205, in the experiment on SF-268 and in the experiment on HCT-116 was > 100 µM (inactive) in each case.

`Cc1cc2c(cc1C)N1C(Cl)=C3CCCCC3=C(C#N)C1N2` (centres undefined): the GI50 in the experiment with HOP-92 was 7.4 µM (inactive); in the experiment with UO-31, 6.55 µM (inactive); with NCI-H23, 4.98 µM (inactive); with TK-10, 5.65 µM (inactive); with RXF 393 it was 14 µM (inactive); in the experiment on CCRF-CEM, 2.48 µM (inactive). For the same molecule, the GI50 with UACC-62 was 2.94 µM (inactive); in the experiment on SN12C, 4.71 µM (inactive); in the experiment on HCC 2998 it was 8.69 µM (inactive); with SF-295 it was 20.4 µM (inactive); with SNB-75, 23.6 µM (inactive); with MDA-N, 4.15 µM (inactive). The GI50 in the experiment with EKVX was 16.3 µM (inactive); in the experiment on COLO 205 it was 16.5 µM (inactive); in the experiment with SF-268 it was 9.25 µM (inactive); in the experiment with HCT-116 it was 1.7 µM (inactive).

For `[N-]=[N+]=Nc1c([N+](=O)[O-])c(=O)n(-c2ccccc2)c2ccccc12`, the GI50 was 26.4 µM (inactive) in the experiment on HOP-92; 14.8 µM (inactive) with UO-31; 22 µM (inactive) in the experiment with NCI-H23; 14.2 µM (inactive) in the experiment with TK-10; 20 µM (inactive) with RXF 393; 29.4 µM (inactive) in the experiment on CCRF-CEM. Besides, the GI50 with UACC-62 was 14.3 µM (inactive); with SN12C it was 23.4 µM (inactive); in the experiment with HCC 2998 it was 61.5 µM (inactive); in the experiment on SF-295, 27.9 µM (inactive); in the experiment on SNB-75, 20.1 µM (inactive); in the experiment with MDA-N, 27.2 µM (inactive). Moreover, the GI50 with EKVX was 16.7 µM (inactive); in the experiment with COLO 205, 21.1 µM (inactive); in the experiment with SF-268, 22.5 µM (inactive); with HCT-116, 20.3 µM (inactive).

For `N#Cc1c(N)nc(SCc2ccccc2)c(C#N)c1-c1ccc(O)cc1`, the GI50 with HOP-92 is 6.97 µM (inactive); with UO-31 it was 1.81 µM (inactive); in the experiment with NCI-H23 it was 15.9 µM (inactive); with TK-10, > 41.8 µM (inactive); with RXF 393 it was 15.9 µM (inactive); with CCRF-CEM, 13.4 µM (inactive). For the same molecule, the GI50 with UACC-62 is 15.7 µM (inactive); in the experiment on SN12C, 13.8 µM (inactive); with HCC 2998, > 38.5 µM (inactive); with SF-295, 13.6 µM (inactive); in the experiment on SNB-75 it was 16.8 µM (inactive); in the experiment with MDA-N, 13 µM (inactive). Further, the GI50 in the experiment with EKVX is 9.44 µM (inactive); in the experiment with COLO 205, 15.6 µM (inactive); in the experiment on SF-268, 18.9 µM (inactive); in the experiment with HCT-116, 11.5 µM (inactive).

Regarding `N#Cc1ncc(C(Cl)Cl)nc1Cl`, the GI50 was 0.00769 µM (active) in the experiment on HOP-92; 1.78 µM (inactive) in the experiment on UO-31; 2.12 µM (inactive) with NCI-H23; 2.35 µM (inactive) with TK-10; 1.75 µM (inactive) with RXF 393; 0.491 µM (active) with CCRF-CEM. In addition, the GI50 was 2.17 µM (inactive) in the experiment with UACC-62; 1.74 µM (inactive) in the experiment on SN12C; 1.69 µM (inactive) in the experiment with HCC 2998; 7.24 µM (inactive) in the experiment with SF-295; 2.29 µM (inactive) in the experiment with SNB-75; 1.5 µM (inactive) in the experiment on MDA-N. The GI50 in the experiment with EKVX is 1.75 µM (inactive); with COLO 205, 1.77 µM (inactive); with SF-268, 2.43 µM (inactive); with HCT-116 it was 1.67 µM (inactive).

Regarding `CCOC(=O)C/N=c1\nc(SC)sc2c(C(=O)OCC)nc(Sc3ccccc3)n12`, the GI50 is 14.8 µM (inactive) in the experiment on LXFL 529; 20.8 µM (inactive) in the experiment with HOP-92; 17.8 µM (inactive) in the experiment on UO-31; 25.9 µM (inactive) in the experiment on TK-10; 8.13 µM (inactive) in the experiment on CCRF-CEM; > 100 µM (inactive) in the experiment with UACC-62. The GI50 with SN12C was 91.4 µM (inactive); in the experiment on HCC 2998 it was 40.1 µM (inactive); with KM-20L2, > 100 µM (inactive); with EKVX it was 45.1 µM (inactive); in the experiment with COLO 205, > 100 µM (inactive); with SF-268, > 100 µM (inactive). The GI50 in the experiment on HCT-116 was 32.1 µM (inactive).

Regarding `CCOC(=O)c1[nH]cc(C)c1-c1c[nH]c2ccccc12`, the GI50 was 22.8 µM (inactive) in the experiment on HOP-92; 19.3 µM (inactive) in the experiment on UO-31; 27.2 µM (inactive) in the experiment with NCI-H23; 19.5 µM (inactive) with TK-10; 30.1 µM (inactive) in the experiment on RXF 393; 18.9 µM (inactive) in the experiment with CCRF-CEM. The GI50 in the experiment on UACC-62 was 14.4 µM (inactive); with SN12C it was 56 µM (inactive); with HCC 2998, 19.9 µM (inactive); in the experiment with SF-295, 29 µM (inactive); with SNB-75, 28.1 µM (inactive); in the experiment with MDA-N, 24.9 µM (inactive). Moreover, the GI50 was > 63.8 µM (inactive) with EKVX, 15.4 µM (inactive) in the experiment on COLO 205, 23.7 µM (inactive) in the experiment on SF-268 and 6.93 µM (inactive) in the experiment with HCT-116.

For `O=C1CS(=O)(=O)C(c2cccc(Oc3ccccc3)c2)N1c1ccc(Cl)cc1` (centres undefined), the GI50 with HOP-92 is 6.14 µM (inactive); with UO-31, 28.6 µM (inactive); with NCI-H23, 21.1 µM (inactive); in the experiment with TK-10, 22.6 µM (inactive); in the experiment with RXF 393, 18.6 µM (inactive); with CCRF-CEM it was 25.6 µM (inactive). Further, the GI50 with UACC-62 was 8.71 µM (inactive); in the experiment on SN12C, 22.1 µM (inactive); in the experiment on HCC 2998, 3.4 µM (inactive); with SF-295, 26.5 µM (inactive); in the experiment on SNB-75, 28 µM (inactive); with MDA-N it was 16.8 µM (inactive). Also, the GI50 is 11.5 µM (inactive) in the experiment with EKVX, 17.7 µM (inactive) in the experiment with COLO 205, 25.1 µM (inactive) in the experiment on SF-268 and 7.91 µM (inactive) with HCT-116.

For the molecule `NNC(=O)c1c(-c2cccnc2)cnc2ccccc12`, the GI50 with HOP-92, in the experiment on UO-31, in the experiment with NCI-H23, in the experiment on TK-10, in the experiment with RXF 393 and with CCRF-CEM was > 100 µM (inactive) in each case. The GI50 is > 100 µM (inactive) in the experiment with UACC-62; > 100 µM (inactive) in the experiment with SN12C; > 100 µM (inactive) in the experiment with HCC 2998; > 100 µM (inactive) in the experiment on SF-295; 45.6 µM (inactive) with SNB-75; > 100 µM (inactive) with MDA-N. Besides, the GI50 in the experiment on EKVX, with COLO 205, in the experiment on SF-268 and in the experiment on HCT-116 was > 100 µM (inactive) each time.

Take `CCCCCCC(O)C(O)CCC(O)C1CCC(CCCCC(O)CC2=CC(C)OC2=O)O1` (centres undefined) [ACETOGENINS]: the GI50 with HOP-92 was 4.88 µM (inactive); in the experiment with UO-31, 2.06 µM (inactive); in the experiment on NCI-H23, 0.161 µM (active); in the experiment on TK-10 it was 8.09 µM (inactive); with RXF 393, 5.87 µM (inactive); in the experiment on CCRF-CEM, 3.58 µM (inactive). The GI50 was 2.06 µM (inactive) with UACC-62; 3.08 µM (inactive) in the experiment on SN12C; 15.9 µM (inactive) with HCC 2998; 1.83 µM (inactive) in the experiment with SF-295; 2.69 µM (inactive) in the experiment with SNB-75; 2.32 µM (inactive) with MDA-N. Besides, the GI50 in the experiment with EKVX is 1.92 µM (inactive); in the experiment with COLO 205, 1.75 µM (inactive); in the experiment with SF-268, 2.06 µM (inactive); in the experiment with HCT-116, 2.8 µM (inactive).
